# From paper PMC10041521, “Fluorescent Activity-Based Probe To Image and Inhibit Factor XIa Activity in Human Plasma” (Journal of Medicinal Chemistry, 2023)
# Where “and” joins values, the source holds several entries; their conditions need not be identical. Equal entries are not always repeated.
# What was measured:
# Type in all cases: biochemical
# fXa = molecular target: T1, fXa (Homo sapiens, UniProt P00742); experiment: Inhibition kinetics (kobs/I) of inhibitor and fluorescent ABP; details: pseudo-first-order, ABP/inhibitor 308 nM to 50 μM, 10 nM enzyme, substrate 50 μM SMII18, 37 °C, 30 min; mean ± s.d., n = 3; SD
# T1 construct: from tissue; host or cells: fresh frozen plasma
# Protocol: (§1) Protein C, factor X, and prothrombin were purified from fresh frozen plasma and then activated as previously described.[33]
# (§2) All kinetic assays were performed using a spectrofluorometer (Molecular Devices SpectraMax Gemini XPS) on 96-well, white, flat bottom, nontreated plates (Corning). The parameters were as follows: excitation/emission wavelength, 355/460 nm (cutoff, 455 nm); varying concentrations of substrates, ABPs, inhibitor, and enzymes. The assay buffer (20 mM Tris-base, 150 mM NaCl, 5 mM CaCl2, pH 7.4) was prepared at room temperature, and the enzyme kinetic studies were performed at 37 °C. All enzymes were preincubated in assay buffer for 15 min at 37 °C before addition to the wells. Each assay was repeated at least twice, and the data represent the average of these repetitions. The obtained results were analyzed using SoftMax (Molecular Devices), GraphPad Prism, and Microsoft Excel software.
# (§3) The kobs/I parameters for APC, thrombin, fXa, and fXIa were measured under pseudo-first-order conditions. […] Next, 60 μL of APC, thrombin, fXa, or fXIa (at a concentration of 10 nM) preincubated at 37 °C was added, and the fluorescence increase over time was measured (λex = 355 nm, λem = 460 nm) for 30 min. The kobs/I parameters were calculated in GraphPad Prism and Microsoft Excel software.[41]
# APC = molecular target: T2, APC (Homo sapiens, UniProt P04070); experiment: as above; details: pseudo-first-order, ABP/inhibitor 308 nM to 50 μM, 10 nM enzyme, substrate 154 μM SMA5, 37 °C, 30 min; mean ± s.d., n = 3; SD
# T2 construct: from tissue; host or cells: fresh frozen plasma
# Protocol: as §1, §2, §3
# fXIa [1] = molecular target: T3, fXIa (Homo sapiens, UniProt P03951); experiment: Labeling of purified coagulation factors with ABPs, SDS-PAGE and blot; set-up: complete conversion of the single chain zymogen to the two-chain active form; made in house; host or cells: HEK293 cells expressing EBNA (pCEP4 vector); details: 200 nM fXIa preincubated with 5 μM inhibitor for 60 min, then probe 1:1, 30 min
# Protocol: To determine biotin-labeled ABPs selectivity, four purified coagulation factors (APC, thrombin, fXa, and fXIa) with a constant concentration of 200 nM were incubated separately with each probe (the probe/enzyme ratio was 1) in assay buffer for 30 min at 37 °C. Each enzyme was incubated with each probe in a volume of 40 μL followed by reduction with 20 μL of 3 × SDS/DTT for 5 min at 95 °C. The first well was loaded with 0.5 μL of the protein marker PageRuler Prestained Protein Ladder (Thermo Scientific), and then 10 μL of each sample was run on a 12% (w/v) 15-well gel. SDS–PAGE separation was performed at 200 V for 39 min followed by a wet tank transfer to a nitrocellulose membrane (0.2 μm, Bio-Rad) at 10 V for 60 min. The membrane was blocked with 2.5% BSA in TBS-T (Tris-buffered saline with 0.1% (v/v) Tween 20) for 60 min at room temperature. Next, the membrane was incubated with fluorescent streptavidin Alexa Fluor 647 conjugate (dilution 1:10,000 in TBS-T with 1% BSA) for 60 min. The biotin-labeled ABPs were detected at 658 nm using an Azure Biosystems Sapphire Biomolecular Imager and Azure Spot Analysis software.
# For fluorescently labeled probe sample preparation, electrophoresis and membrane transfer were performed as described above. When testing the inhibitor utility, 200 nM fXIa was incubated with inhibitor (final inhibitor concentration 5 μM) for 60 min prior to probe addition. After the membrane was blocked with 2.5% BSA in TBS-T (60 min), the labeled proteins were directly imaged with a […] laser using an Azure Biosystems Sapphire Biomolecular Imager and Azure Spot Analysis software.
# fXIa [2] = molecular target: T3, fXIa; experiment: Inhibition kinetics (kobs/I) of inhibitor and fluorescent ABP; set-up: complete conversion of the single chain zymogen to the two-chain active form; made in house; host or cells: HEK293 cells expressing EBNA (pCEP4 vector); details: pseudo-first-order, ABP/inhibitor 308 nM to 50 μM, 10 nM enzyme, substrate 100 μM SMX1, 37 °C, 30 min, corrected for substrate KM; mean ± s.d., n = 3; SD
# Protocol: as §2
# as §3, with “conditions. Inhibitor and ABP were serially diluted in assay buffer until the seventh well to obtain concentrations ranging from 308 nM to 50 μM.” for “conditions.”
# T3 sequence (P03951 388-625 limits assumed): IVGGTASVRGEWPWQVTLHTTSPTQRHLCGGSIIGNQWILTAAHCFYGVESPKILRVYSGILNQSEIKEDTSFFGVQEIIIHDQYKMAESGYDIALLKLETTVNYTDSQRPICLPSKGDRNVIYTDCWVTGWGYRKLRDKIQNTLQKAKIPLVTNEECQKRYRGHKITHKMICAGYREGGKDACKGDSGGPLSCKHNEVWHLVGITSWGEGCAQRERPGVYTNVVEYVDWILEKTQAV
# T3 sequence (P03951 19-387 partner limits assumed): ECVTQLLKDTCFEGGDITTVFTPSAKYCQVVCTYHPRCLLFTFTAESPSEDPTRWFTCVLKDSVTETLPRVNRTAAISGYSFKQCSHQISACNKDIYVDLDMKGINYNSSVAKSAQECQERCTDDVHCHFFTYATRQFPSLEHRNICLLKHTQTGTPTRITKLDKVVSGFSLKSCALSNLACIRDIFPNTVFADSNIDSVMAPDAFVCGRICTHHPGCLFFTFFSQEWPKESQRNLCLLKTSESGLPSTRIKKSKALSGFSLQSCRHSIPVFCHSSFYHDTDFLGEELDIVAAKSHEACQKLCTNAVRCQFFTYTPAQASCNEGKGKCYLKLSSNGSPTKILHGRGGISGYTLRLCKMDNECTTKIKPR
# T2 sequence (P04070 212-461 limits assumed): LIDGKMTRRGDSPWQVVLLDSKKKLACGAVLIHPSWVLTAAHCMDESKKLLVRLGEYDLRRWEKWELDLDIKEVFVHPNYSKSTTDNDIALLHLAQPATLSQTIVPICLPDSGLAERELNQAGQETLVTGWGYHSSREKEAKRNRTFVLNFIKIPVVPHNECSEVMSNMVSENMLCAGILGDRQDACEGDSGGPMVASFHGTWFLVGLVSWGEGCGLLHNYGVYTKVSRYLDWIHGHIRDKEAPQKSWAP
# T2 sequence (P04070 43-197 partner limits assumed): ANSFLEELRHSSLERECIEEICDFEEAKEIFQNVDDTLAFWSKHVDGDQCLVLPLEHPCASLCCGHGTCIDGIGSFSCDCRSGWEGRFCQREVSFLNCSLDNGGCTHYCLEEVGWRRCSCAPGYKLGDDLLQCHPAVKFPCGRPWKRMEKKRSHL
# T1 sequence (P00742 235-488 limits assumed): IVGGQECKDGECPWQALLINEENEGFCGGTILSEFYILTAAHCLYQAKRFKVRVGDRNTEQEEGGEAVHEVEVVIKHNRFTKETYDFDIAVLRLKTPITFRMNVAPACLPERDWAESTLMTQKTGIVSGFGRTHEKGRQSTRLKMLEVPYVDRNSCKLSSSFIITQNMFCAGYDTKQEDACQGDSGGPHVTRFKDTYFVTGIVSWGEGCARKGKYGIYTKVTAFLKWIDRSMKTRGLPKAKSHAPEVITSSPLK
# T1 sequence (P00742 41-179 partner limits assumed): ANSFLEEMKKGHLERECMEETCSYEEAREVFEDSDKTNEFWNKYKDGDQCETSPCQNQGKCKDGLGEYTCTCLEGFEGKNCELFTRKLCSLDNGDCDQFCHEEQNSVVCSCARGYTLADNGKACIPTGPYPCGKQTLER
substance,measurement,setting,value
"Ac-Tyr(2,6-Cl2-Z)-Nle-Glu(Bzl)-ArgP(OPh)2 [I-SMXI5]",kobs/I fXa,fXa,100 ± 13 M⁻¹ s⁻¹
same,kobs/I APC,APC,"1,570 ± 20 M^-1 s^-1"
same,effect of preblocking fXIa on P-SMXI52 labeling,fXIa [1],completely inhibited the fluorescent signal
same,kobs/I fXIa,fXIa [2],"54,700 ± 2,800 M^-1 s^-1 and 54,700 ± 2800 M^-1 s^-1"
